Measured values: PubChem BioAssay AID330 (DTP/NCI, 2004)
Values joined by “and” are separate entries in the source; they are usually repeats but may differ in a detail not shown here. Identical values can stand only once. Inconclusive results and toxic doses are left out.

System: P388 leukemia ip, CD2F1 mice, survival T/C
Test: NCI In Vivo Anticancer Drug Screen. Data for tumor model P388 Leukemia (intraperitoneal) in CD2F1 (CDF1) mice
Conditions: endpoint: median survival time, higher = longer survival
Outline: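 Mice carrying the transplanted tumor received test compound or vehicle. Survival was recorded in each group, and the value is the treated-group measurement divided by that of the vehicle-treated control group.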

[1] = dose: 60.0 mg/kg/injection, schedule: Q01DX005 (ip), vehicle: saline
[2] = dose: 100.0 mg/kg/injection, schedule: Q01DX009 (ip), vehicle: saline with Tween-80
[3] = dose: 200.0 mg/kg/injection, schedule: Q01DX009 (ip), vehicle: saline with Tween-80
[4] = dose: 50.0 mg/kg/injection, schedule: Q01DX005 (ip), vehicle: saline with Tween-80
[5] = dose: 100.0 mg/kg/injection, schedule: Q01DX005 (ip), vehicle: saline with Tween-80
[6] = dose: 200.0 mg/kg/injection, schedule: Q01DX005 (ip), vehicle: saline with Tween-80
[7] = dose: 50.0 mg/kg/injection, schedule: Q01DX009 (ip), vehicle: Klucel (hydroxypropylcellulose) (HPC)
[8] = dose: 100.0 mg/kg/injection, schedule: Q01DX009 (ip), vehicle: Klucel (hydroxypropylcellulose) (HPC)
[9] = dose: 50.0 mg/kg/injection, schedule: Q01DX005 (ip), vehicle: Klucel (hydroxypropylcellulose) (HPC)
[10] = dose: 100.0 mg/kg/injection, schedule: Q01DX005 (ip), vehicle: Klucel (hydroxypropylcellulose) (HPC)
[11] = dose: 200.0 mg/kg/injection, schedule: Q01DX005 (ip), vehicle: Klucel (hydroxypropylcellulose) (HPC)
[12] = dose: 50.0 mg/kg/injection, schedule: Q01DX009 (ip), vehicle: saline
[13] = dose: 100.0 mg/kg/injection, schedule: Q01DX009 (ip), vehicle: saline
[14] = dose: 200.0 mg/kg/injection, schedule: Q01DX009 (ip), vehicle: saline
[15] = dose: 60.0 mg/kg/injection, schedule: Q01DX005 (ip), vehicle: saline with Tween-80
[16] = dose: 120.0 mg/kg/injection, schedule: Q01DX005 (ip), vehicle: saline with Tween-80
[17] = dose: 240.0 mg/kg/injection, schedule: Q01DX005 (ip), vehicle: saline with Tween-80
[18] = dose: 120.0 mg/kg/injection, schedule: Q01DX005 (ip), vehicle: Klucel (hydroxypropylcellulose) (HPC)
[19] = dose: 240.0 mg/kg/injection, schedule: Q01DX005 (ip), vehicle: Klucel (hydroxypropylcellulose) (HPC)
[20] = dose: 200.0 mg/kg/injection, schedule: Q01DX009 (ip), vehicle: Klucel (hydroxypropylcellulose) (HPC)

For `Cc1csc(Nc2c3ccccc3nc3ccccc23)n1`, the T/C (dose: 12.5 mg/kg/injection, schedule: Q04DX002 (ip), vehicle: distilled water + Tween-80) was 99 % of control, the T/C (dose: 25.0 mg/kg/injection, schedule: Q04DX002 (ip), vehicle: distilled water + Tween-80) was 98 % of control and the T/C (dose: 50.0 mg/kg/injection, schedule: Q04DX002 (ip), vehicle: distilled water + Tween-80) was 91 % of control. For the same compound, the T/C (dose: 100.0 mg/kg/injection, schedule: Q04DX002 (ip), vehicle: distilled water + Tween-80) was 91 % of control, the T/C (dose: 200.0 mg/kg/injection, schedule: Q04DX002 (ip), vehicle: distilled water + Tween-80) was 87 % of control and the T/C (dose: 400.0 mg/kg/injection, schedule: Q04DX002 (ip), vehicle: distilled water + Tween-80) was 100 % of control.
`N#Cc1nc(CC(=O)c2ccc(Cl)cc2Cl)c(CC(=O)c2ccc(Cl)cc2Cl)nc1C#N` was tested, and the T/C [1] was 112 % of control and the T/C (dose: 120.0 mg/kg/injection, schedule: Q01DX005 (ip), vehicle: saline) was 106 % of control.
With `COc1cccc(CC(=O)NCCc2ccc(OC)c(OC)c2)c1` the T/C [2] was 100 % of control, the T/C [3] was 100 % of control and the T/C (dose: 400.0 mg/kg/injection, schedule: Q01DX009 (ip), vehicle: saline with Tween-80) was 104 % of control.
In the case of `C[C@@H]1C[C@@H]2c3cccc4c3c(cn4CO)C[C@H]2N(C)C1`, the T/C [4] is reported as 100 % of control, the T/C [5] is reported as 100 % of control and the T/C [6] is reported as 107 % of control.
`CCOC(=O)CNCc1ccc(Cl)c(Cl)c1` was tested, and the T/C (dose: 6.25 mg/kg/injection, schedule: Q01DX009 (ip), vehicle: Klucel (hydroxypropylcellulose) (HPC)) was 100 % of control, the T/C (dose: 12.5 mg/kg/injection, schedule: Q01DX009 (ip), vehicle: Klucel (hydroxypropylcellulose) (HPC)) was 103 % of control and 97 % of control and the T/C (dose: 25.0 mg/kg/injection, schedule: Q01DX009 (ip), vehicle: Klucel (hydroxypropylcellulose) (HPC)) was 100 % of control. The T/C [7] was 108 % of control and 94 % of control and the T/C [8] was 104 % of control.
`COc1ccc(CSCC(NC(=O)OC(C)(C)C)C(=O)O)cc1` (stereo unspecified) was tested, and the T/C [9] was 105 % of control, the T/C [10] was 97 % of control and the T/C [11] was 100 % of control.
With `CCCCCCC(=O)N1SC(NC(=O)OC)=Nc2ccccc21` the T/C (dose: 50.0 mg/kg/injection, schedule: Q01DX005 (ip), vehicle: acetone) was 108 % of control, the T/C (dose: 100.0 mg/kg/injection, schedule: Q01DX005 (ip), vehicle: acetone) was 102 % of control and the T/C (dose: 200.0 mg/kg/injection, schedule: Q01DX005 (ip), vehicle: acetone) was 102 % of control.
With `C/C(=N\NC(=S)N1CCCCCC1)c1ccccn1` the T/C (dose: 0.78 mg/kg/injection, schedule: Q01DX009 (ip), vehicle: saline with Tween-80) was 99 % of control and 96 % of control, the T/C (dose: 1.56 mg/kg/injection, schedule: Q01DX009 (ip), vehicle: saline with Tween-80) was 99 % of control and 103 % of control and the T/C (dose: 3.12 mg/kg/injection, schedule: Q01DX009 (ip), vehicle: saline with Tween-80) was 90 % of control. For the same compound, the T/C (dose: 3.13 mg/kg/injection, schedule: Q01DX009 (ip), vehicle: saline with Tween-80) was 121 % of control and 95 % of control, the T/C (dose: 6.25 mg/kg/injection, schedule: Q01DX009 (ip), vehicle: saline with Tween-80) was 100 % of control and 112 % of control and 117 % of control and the T/C (dose: 12.5 mg/kg/injection, schedule: Q01DX009 (ip), vehicle: saline with Tween-80) was 103 % of control.
With `O=[N+]([O-])c1ccc(-n2nnc3ccccc32)nc1` the T/C [12] was 108 % of control, the T/C [13] was 99 % of control and the T/C [14] was 99 % of control.
`COC1OCN(C(C)(C)C)CC1(C)C` (stereo unspecified) was tested, and the T/C (dose: 15.0 mg/kg/injection, schedule: Q01DX009 (ip), vehicle: saline with Tween-80) was 95 % of control, the T/C (dose: 30.0 mg/kg/injection, schedule: Q01DX009 (ip), vehicle: saline with Tween-80) was 102 % of control and the T/C (dose: 60.0 mg/kg/injection, schedule: Q01DX009 (ip), vehicle: saline with Tween-80) was 121 % of control.
`CC(=O)CC(=O)N(C)C` was tested, and the T/C [12] was 100 % of control, the T/C [13] was 98 % of control and the T/C [14] was 99 % of control. The T/C (dose: 400.0 mg/kg/injection, schedule: Q01DX009 (ip), vehicle: saline) was 99 % of control.
For `COc1cc(Br)cc(OC)c1N`, the T/C (dose: 50.0 mg/kg/injection, schedule: Q01DX009 (ip), vehicle: saline with Tween-80) was 97 % of control, the T/C [2] was 100 % of control and the T/C [3] was 105 % of control.
`Cc1cc(-c2ccc(Oc3ccc(Br)cc3)cc2)n[nH]c1=O` was tested, and the T/C [9] was 99 % of control, the T/C [10] was 104 % of control and the T/C [11] was 96 % of control.
`CC(C)CNC(=O)NCCCCCCNC(=O)NCC(C)C` was tested, and the T/C [15] was 94 % of control, the T/C [16] was 93 % of control and the T/C [17] was 93 % of control.
`NC(N)=NN=C(C1CC1)C1CC1` was tested, and the T/C [9] was 100 % of control, the T/C [10] was 98 % of control and the T/C [11] was 103 % of control.
For `CC(=O)Oc1ccccc1C(=O)OC1CC(C)CCC1C(C)C` (stereo unspecified), the T/C (dose: 12.5 mg/kg/injection, schedule: Q01DX005 (ip), vehicle: Klucel (hydroxypropylcellulose) (HPC)) was 99 % of control, the T/C (dose: 25.0 mg/kg/injection, schedule: Q01DX005 (ip), vehicle: Klucel (hydroxypropylcellulose) (HPC)) was 106 % of control and the T/C [9] was 88 % of control and 94 % of control. For the same compound, the T/C [11] was 103 % of control.
`CCN(CC)C(=O)c1cncc(C(N)=O)c1` was tested, and the T/C (dose: 60.0 mg/kg/injection, schedule: Q01DX005 (ip), vehicle: Klucel (hydroxypropylcellulose) (HPC)) was 110 % of control, the T/C [18] was 111 % of control and the T/C [19] was 101 % of control.
`CNC(=O)OCc1c(COC(=O)NC)c(-c2ccc(C(C)(C)C)cc2)n(C)c1C` was tested, and the T/C (dose: 6.25 mg/kg/injection, schedule: Q01DX009 (ip), vehicle: distilled water + Tween-80) was 150 % of control and 152 % of control, the T/C (dose: 12.5 mg/kg/injection, schedule: Q01DX009 (ip), vehicle: distilled water + Tween-80) was 155 % of control and the T/C (dose: 25.0 mg/kg/injection, schedule: Q01DX009 (ip), vehicle: distilled water + Tween-80) was 150 % of control and 158 % of control. For the same compound, the T/C (dose: 50.0 mg/kg/injection, schedule: Q01DX009 (ip), vehicle: distilled water + Tween-80) was 97 % of control.
For `CNC(=O)N(C)C1=NC(O)(c2ccccc2)C(c2ccccc2)=N1` (stereo unspecified), the T/C (dose: 100.0 mg/kg/injection, schedule: Q04DX002 (ip), vehicle: saline with Tween-80) was 87 % of control.
With `CSc1cccc(N=C(N)N)c1` the T/C [12] was 100 % of control and the T/C [13] was 98 % of control.
In the case of `C/C(=N/N=C(N)N)c1cn(C(=N)N)nc1C`, the T/C (dose: 7.5 mg/kg/injection, schedule: Q01DX005 (ip), vehicle: saline) is reported as 100 % of control and 101 % of control, the T/C (dose: 15.0 mg/kg/injection, schedule: Q01DX005 (ip), vehicle: saline) is reported as 109 % of control and 95 % of control and the T/C (dose: 30.0 mg/kg/injection, schedule: Q01DX005 (ip), vehicle: saline) is reported as 101 % of control and 95 % of control. The T/C [1] was 101 % of control and 107 % of control, the T/C [18] was 99 % of control and the T/C [19] was 117 % of control.
For `C=CCNc1nc2c(s1)c(C)c(O)c1ccccc12`, the T/C [15] was 93 % of control, the T/C [16] was 96 % of control and the T/C [17] was 106 % of control.
With `CSc1ccnc2cc(Cl)ccc12` the T/C [9] was 96 % of control, the T/C [10] was 106 % of control and the T/C [11] was 110 % of control.
In the case of `N=C1SCC(=O)C1C(=O)O` (stereo unspecified), the T/C [4] is reported as 105 % of control, the T/C [5] is reported as 119 % of control and the T/C [6] is reported as 110 % of control.
In the case of `CC(/C=N\NC(N)=O)=N/N=C(N)N`, the T/C (dose: 100.0 mg/kg/injection, schedule: Q04DX003 (ip), vehicle: saline) is reported as 94 % of control, the T/C (dose: 200.0 mg/kg/injection, schedule: Q04DX003 (ip), vehicle: saline) is reported as 94 % of control and the T/C (dose: 400.0 mg/kg/injection, schedule: Q04DX003 (ip), vehicle: saline) is reported as 92 % of control.
In the case of `COc1ccc(C2COc3cc(OC(C)=O)c(OC(C)=O)cc3C2)cc1` (stereo unspecified), the T/C [15] is reported as 103 % of control, the T/C [16] is reported as 103 % of control and the T/C [17] is reported as 103 % of control.
In the case of `COc1cc(OC)c2c[n+](C)c3c4cc(OC)c(OC)cc4ccc3c2c1`, the T/C (dose: 20.0 mg/kg/injection, schedule: Q01DX009 (ip), vehicle: saline with Tween-80) is reported as 161 % of control and the T/C (dose: 40.0 mg/kg/injection, schedule: Q01DX009 (ip), vehicle: saline with Tween-80) is reported as 169 % of control.
In the case of `Clc1cccc(NN=Nc2ccccc2)c1`, the T/C [7] is reported as 104 % of control, the T/C [8] is reported as 96 % of control and the T/C [20] is reported as 103 % of control.
With `CCCCCCCCCCCC[As](CCCCCCCCCCCC)SCC1OC(OC(C)=O)C(OC(C)=O)C(OC(C)=O)C1OC(C)=O` (stereo unspecified) the T/C [7] was 111 % of control, the T/C [8] was 104 % of control and the T/C [20] was 105 % of control.
